Our source for the IC50 and CC50 values is patent publication EP0453247A2, “Anti-viral compounds” (THE WELLCOME FOUNDATION LIMITED, priority 1990, dated 1991).

The test system of one data set is VZV. Nature of the data set: VZV plaque reduction assay. It counts as cell-based. The settings on record: Human alphaherpesvirus 3; plaque reduction in monolayers of MRC5 or Detroit 532 cells; read-out: VZV 1C50. As for the experimental part:
Antiviral testing against VZV was determined by measuring the ability of the compound to reverse the cytophathic effect of VZV infection.
VZV is assayed in monolayers of either MRC5 cells (human embryonic lung) or Detroit 532 cells (human foreskin fibroblasts) in multiwell trays. Activity of compounds is determined in the plaque reduction assay, in which a cell monolayer is infected with a suspension of VZV. Plaque numbers of each concentration are expressed as percentage of the control and a dose-response curve is drawn. From this curve the 50% inhibitory concentration (IC₅₀) is estimated.
In general terms: Plaque reduction counts the foci of infection that form in a cell layer.

Data set [1] in a line: Cell growth inhibition assay (MTT uptake). It counts as cell-based. The settings on record: monkey, Vero cells, 50% inhibition of cell viability at 96 hours, read-out: Toxicity CCID50(Vero). Here is the method:
Cell toxicity is assessed in a cell growth inhibition assay. Subconfluent cultures of Vero cells grown on 96-well microtiter dishes are exposed to different dilutions of drug, and cell viability determined daily on replicate cultures using uptake of a tetrazolium dye (MTT). The concentration required for a 50% inhibition of cell vaibility at 96 hours is termed CCID₅₀.

In the case of `CC#Cc1cn([C@@H]2O[C@H](CO)[C@@H](O)[C@H]2F)c(=O)[nH]c1=O` [2'-Deoxy-2'-fluoro-5-prop-1-ynyluridine, 2′-Deoxy-2′-fluoro-5-prop-1-ynyluridine], the IC50 in the data set with VZV was found to be 2600 nM. The CC50 at 96 h in data set [1] is above 500 µM.

Consider `C#Cc1cn([C@@H]2O[C@H](CO)[C@@H](O)[C@H]2F)c(=O)nc1N` [2'-Deoxy-5-ethynyl-2'-fluorocytidine, 2′-Deoxy-5-ethynyl-2′fluorocytidine], for which the IC50 in the data set with VZV is 5300 nM. Besides, the CC50 at 96 h in data set [1] was above 500 µM.

As for `CC#Cc1cn([C@@H]2O[C@H](CO)[C@@H](O)[C@H]2F)c(=O)nc1N` [2'-Deoxy-2'-fluoro-5-prop-1-ynylcytidine, 2′-Deoxy-2′-fluoro-5-prop-1-ynylcytidine], in the data set with VZV, the IC50 worked out at 2300 nM. In addition, in data set [1], the CC50 at 96 h was above 500 µM.

Take `C#Cc1cn([C@@H]2O[C@H](CO)[C@@H](O)[C@H]2F)c(=O)[nH]c1=O` [2'-Deoxy-5-ethynyl-2'-fluorouridine, 2′-Deoxy-5-ethynyl-2′-fluoro uridine]: the IC50 in the data set with VZV stood at 2160 nM. For the same compound, the CC50 at 96 h in data set [1] was determined as 156 µM.
